According to PMC7785020, “A unique hormonal recognition feature of the human glucagon-like peptide-2 receptor” (Cell Research, 2020):
Numbering of substitutions follows the chain as printed.

Assays:
GLP-2R W249^ECL1A = target: T1, GLP-2R W249^ECL1A (Homo sapiens, UniProt O95838, W249A); assay: radioligand competition binding, W249^ECL1A; set-up: WT (1–553); expressed in transfected cells; conditions: COS-7, W249^ECL1A; [^125I]GLP-2(1–33, M10Y) 10–15 pM, 4 h, 4 °C; mean ± SEM, n ≥ 3 in duplicate
T1 sequence (O95838 1-553 W249A): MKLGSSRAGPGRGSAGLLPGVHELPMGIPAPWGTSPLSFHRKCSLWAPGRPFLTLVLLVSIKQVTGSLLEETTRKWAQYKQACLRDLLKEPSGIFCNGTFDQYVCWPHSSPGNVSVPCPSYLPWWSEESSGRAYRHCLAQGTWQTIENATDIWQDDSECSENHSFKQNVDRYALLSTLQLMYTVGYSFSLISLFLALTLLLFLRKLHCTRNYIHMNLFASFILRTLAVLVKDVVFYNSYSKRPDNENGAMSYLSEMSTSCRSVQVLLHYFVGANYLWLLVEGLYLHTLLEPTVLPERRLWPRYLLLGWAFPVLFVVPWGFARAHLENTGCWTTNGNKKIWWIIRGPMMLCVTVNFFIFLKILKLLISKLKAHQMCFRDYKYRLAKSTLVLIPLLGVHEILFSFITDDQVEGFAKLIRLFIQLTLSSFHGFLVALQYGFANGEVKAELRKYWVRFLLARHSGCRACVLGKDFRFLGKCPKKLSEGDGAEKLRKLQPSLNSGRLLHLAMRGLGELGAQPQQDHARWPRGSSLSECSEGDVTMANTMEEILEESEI
Experimental: (§1) A stepwise oxidation reaction was performed by addition of 6 aliquots of 5 µL ChloramineT (30 µL/mL) with a 1-min interval during constant stirring. The reaction was terminated by the addition of 400 µL phase A (0.1% trifluoracetic acid) before being fractionated into 1 mL volume by reverse-phase high-performance liquid chromatography (RP-HPLC, Waters 600 SimiPrep system) on a C18 column. The iodinated protein was […] by increasing concentrations of phase B (Acetonitrile + 0.1% TFA) and tested for competitive binding ability.
(§2) One day before transfection, the COS-7 cells were seeded in 75 cm^2 culture flasks (3 million cells/flask) in DMEM, containing 3.9 g/L NaHCO3 and supplemented with 10% FBS, 1% L-glutamine, 180 units/mL penicillin and 45 µg/mL streptomycin. After an overnight culture at 37 °C, 10% CO2 and 95% air humidity, the cells were transiently transfected with different GLP-2R constructs or pcDNA3.1 vector as previously described.[52] Following 24-h incubation, the cells were transferred to Costa® microtiter plates (150,000 cells/well, PerkinElmer) to achieve a 5%–10% specific binding. […] The cells were then washed twice in binding buffer (4 °C), lysed and counted for radioactivity using a Wallac Gamma Counter (PerkinElmer).

GLP-2R Y252^ECL1A = target: T2, GLP-2R Y252^ECL1A (Homo sapiens, UniProt O95838, Y252A); assay: radioligand competition binding, Y252^ECL1A; set-up: WT (1–553); expressed in transfected cells; conditions: COS-7, Y252^ECL1A; [^125I]GLP-2(1–33, M10Y) 10–15 pM, 4 h, 4 °C; mean ± SEM, n ≥ 3 in duplicate
T2 sequence (O95838 1-553 Y252A): T1 sequence (O95838 1-553 W249A) with A249W, Y252A
Experimental: as §1, §2

GLP-2R D244^ECL1A = target: T3, GLP-2R D244^ECL1A (Homo sapiens, UniProt O95838, D244A); assay: radioligand competition binding, D244^ECL1A; set-up: WT (1–553); expressed in transfected cells; conditions: COS-7, D244^ECL1A; [^125I]GLP-2(1–33, M10Y) 10–15 pM, 4 h, 4 °C; mean ± SEM, n ≥ 3 in duplicate
T3 sequence (O95838 1-553 D244A): T1 sequence (O95838 1-553 W249A) with D244A, A249W
Experimental: as §1, §2

GLP-2R WT (1–553) = target: T4, GLP-2R WT (1–553) (Homo sapiens, UniProt O95838); assay: radioligand competition binding, WT; conditions: COS-7, WT (1–553); [^125I]GLP-2(1–33, M10Y) 10–15 pM, 4 h, 4 °C; mean ± SEM, n ≥ 3 in duplicate
T4 construct: WT (1–553); expressed in transfected cells; host or cells: COS-7
T4 sequence (O95838 whole entry): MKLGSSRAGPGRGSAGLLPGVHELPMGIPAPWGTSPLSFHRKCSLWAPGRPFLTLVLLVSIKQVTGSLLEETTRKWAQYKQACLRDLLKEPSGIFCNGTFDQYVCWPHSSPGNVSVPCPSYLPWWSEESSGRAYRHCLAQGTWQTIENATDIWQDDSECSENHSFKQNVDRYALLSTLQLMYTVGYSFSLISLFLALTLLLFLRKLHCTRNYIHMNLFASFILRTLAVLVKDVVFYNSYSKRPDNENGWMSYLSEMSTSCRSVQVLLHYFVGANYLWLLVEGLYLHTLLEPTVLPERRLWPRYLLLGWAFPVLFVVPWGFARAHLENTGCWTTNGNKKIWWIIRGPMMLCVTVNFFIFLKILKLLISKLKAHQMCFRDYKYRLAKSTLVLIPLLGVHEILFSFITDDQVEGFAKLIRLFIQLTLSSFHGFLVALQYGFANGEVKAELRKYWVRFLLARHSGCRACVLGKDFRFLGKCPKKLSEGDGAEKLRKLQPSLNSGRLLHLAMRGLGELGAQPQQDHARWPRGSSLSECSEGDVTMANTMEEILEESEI
Experimental: as §1, §2

SMILES | % Binding of WT (GLP-2R W249^ECL1A) [%] | % Binding of WT (GLP-2R Y252^ECL1A) [%] | % Binding of WT (GLP-2R D244^ECL1A) [%] | % Binding of WT (GLP-2R WT (1–553)) [%]
CC[C@H](C)[C@H](NC(=O)[C@H](Cc1ccccc1)NC(=O)[C@H](CC(=O)O)NC(=O)[C@H](CCCNC(=N)N)NC(=O)[C@H](C)NC(=O)[C@H](C)NC(=O)[C@H](CC(C)C)NC(=O)[C@H](CC(N)=O)NC(=O)[C@H](CC(=O)O)NC(=O)[C@H](CC(C)C)NC(=O)[C@@H](NC(=O)[C@@H](NC(=O)[C@H](CC(N)=O)NC(=O)[C@H](CCSC)NC(=O)[C@H](CCC(=O)O)NC(=O)[C@H](CC(=O)O)NC(=O)[C@H](CO)NC(=O)[C@H](Cc1ccccc1)NC(=O)[C@H](CO)NC(=O)CNC(=O)[C@H](CC(=O)O)NC(=O)[C@H](C)NC(=O)[C@@H](N)Cc1c[nH]cn1)[C@@H](C)O)[C@@H](C)CC)C(=O)N[C@@H](CC(N)=O)C(=O)N[C@@H](Cc1c[nH]c2ccccc12)C(=O)N[C@@H](CC(C)C)C(=O)N[C@H](C(=O)N[C@@H](CCC(N)=O)C(=O)N[C@H](C(=O)N[C@@H](CCCCN)C(=O)N[C@H](C(=O)N[C@H](C(=O)N[C@@H](CC(=O)O)C(=O)O)[C@@H](C)O)[C@@H](C)CC)[C@@H](C)O)[C@@H](C)CC [Human GLP-2 (1–33)] | 2.2 ± 1.2 | 8.3 ± 1.8 | 69.1 ± 4.9 | 99.2 ± 2.3
CC[C@H](C)[C@H](NC(=O)[C@H](Cc1ccccc1)NC(=O)[C@H](CC(=O)O)NC(=O)[C@H](CCCNC(=N)N)NC(=O)[C@H](C)NC(=O)[C@H](C)NC(=O)[C@H](CC(C)C)NC(=O)[C@H](CC(N)=O)NC(=O)[C@H](CC(=O)O)NC(=O)[C@H](CC(C)C)NC(=O)[C@@H](NC(=O)[C@@H](NC(=O)[C@H](CC(N)=O)NC(=O)[C@H](CCSC)NC(=O)[C@H](CCC(=O)O)NC(=O)[C@H](CC(=O)O)NC(=O)[C@H](CO)NC(=O)[C@H](Cc1ccccc1)NC(=O)[C@H](CO)NC(=O)CNC(=O)[C@H](CC(=O)O)NC(=O)CNC(=O)[C@@H](N)Cc1c[nH]cn1)[C@@H](C)O)[C@@H](C)CC)C(=O)N[C@@H](CC(N)=O)C(=O)N[C@@H](Cc1c[nH]c2ccccc12)C(=O)N[C@@H](CC(C)C)C(=O)N[C@H](C(=O)N[C@@H](CCC(N)=O)C(=O)N[C@H](C(=O)N[C@@H](CCCCN)C(=O)N[C@H](C(=O)N[C@H](C(=O)N[C@@H](CC(=O)O)C(=O)O)[C@@H](C)O)[C@@H](C)CC)[C@@H](C)O)[C@@H](C)CC [Teduglutide] | 2.9 ± 2.0 | 6.3 ± 1.7 | 77.5 ± 5.7 | 99.7 ± 1.9
